Test results: patent US20250230193A1, “CYCLIC COMPOUND HAVING SELECTIVE KRAS INHIBITORY EFFECT ON HRAS AND NRAS” (CHUGAI SEIYAKU KABUSHIKI KAISHA, priority 2022, published 2025)

Experiments:
[1] = molecular target: GDP-bound NRAS wild-type protein (Homo sapiens, UniProt P01111); test: Binding to NRAS by surface plasmon resonance (SPR), Single Cycle Kinetics; conditions: KD ratio, GDP-bound NRAS wild-type vs GDP-bound KRAS wild-type, SPR
[2] = molecular target: GDP-bound HRAS wild-type protein (Homo sapiens, UniProt P01112); test: Binding to HRAS by surface plasmon resonance (SPR), Single Cycle Kinetics; conditions: KD ratio, GDP-bound HRAS wild-type vs GDP-bound KRAS wild-type, SPR
Chain of GDP-bound HRAS wild-type protein (P01112 whole entry): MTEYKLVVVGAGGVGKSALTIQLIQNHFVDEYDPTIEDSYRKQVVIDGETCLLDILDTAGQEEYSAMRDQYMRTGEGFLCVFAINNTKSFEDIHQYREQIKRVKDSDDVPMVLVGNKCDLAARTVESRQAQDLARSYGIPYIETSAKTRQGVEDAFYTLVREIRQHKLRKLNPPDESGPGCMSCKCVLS

Chain of GDP-bound NRAS wild-type protein (P01111 whole entry): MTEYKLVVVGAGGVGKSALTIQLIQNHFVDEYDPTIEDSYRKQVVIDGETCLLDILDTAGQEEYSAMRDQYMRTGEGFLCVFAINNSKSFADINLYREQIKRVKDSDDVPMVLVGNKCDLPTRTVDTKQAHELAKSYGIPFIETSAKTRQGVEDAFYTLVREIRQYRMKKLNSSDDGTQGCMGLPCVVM

Row | SMILES | NRAS/KRAS (ratio of KD value for NRAS to KD value for KRAS) [1] | HRAS/KRAS (ratio of KD value for HRAS to KD value for KRAS) [2]
1 | CCCN(C)C(=O)[C@@H]1CC(=O)N(C)[C@@H](CC)C(=O)N[C@@H]([C@@H](C)CC)C(=O)N(C)CC(=O)N(C)[C@H]2C/C=C\CCN(C2=O)[C@@H](Cc2ccc(C(F)(F)F)cc2)C(=O)N(C)CC(=O)N[C@@H](CCc2cc(F)c(C(F)(F)F)c(F)c2)C(=O)N2C[C@H](OCC)C[C@H]2C(=O)NC2(CCC2)C(=O)N(C)[C@@H](C2CCCC2)C(=O)N1C [PP1699] | A (a compound having 10 or more and less than 20 is denoted as A) | A (a compound having 10 or more and less than 20 is denoted as A)
2 | CCCN(C)C(=O)[C@@H]1CC(=O)N(C)[C@@H](CC(F)F)C(=O)N[C@@H]([C@@H](C)CC)C(=O)N(C)CC(=O)N(C)[C@H]2C/C=C\CCN(C2=O)[C@@H](Cc2ccc(C(F)(F)F)cc2)C(=O)N(C)CC(=O)N[C@@H](CCc2cc(F)c(C(F)(F)F)c(F)c2)C(=O)N2C[C@H](OCC)C[C@H]2C(=O)NC2(CCC2)C(=O)N(C)[C@@H](C2CCCC2)C(=O)N1C [PP1700] | A (a compound having 10 or more and less than 20 is denoted as A) | A (a compound having 10 or more and less than 20 is denoted as A)
3 | CCO[C@@H]1C[C@H]2C(=O)NC3(CCC3)C(=O)N(C)[C@@H](C3CCCC3)C(=O)N(C)[C@H](C(=O)N(C)CC)CC(=O)N(C)[C@@H](CC(F)(F)F)C(=O)N[C@@H]([C@@H](C)CC)C(=O)N(C)CC(=O)N(C)[C@H]3C/C=C\CCN(C3=O)[C@@H](Cc3ccc(C(F)(F)F)cc3)C(=O)N(C)CC(=O)N[C@@H](CCc3cc(F)c(C(F)(F)F)c(F)c3)C(=O)N2C1 [PP1701] | A (a compound having 10 or more and less than 20 is denoted as A) | A (a compound having 10 or more and less than 20 is denoted as A)
4 | CCCN(C)C(=O)[C@@H]1CC(=O)N(C)[C@@H](CC(F)(F)F)C(=O)N[C@@H]([C@@H](C)CC)C(=O)N(C)CC(=O)N(C)[C@H]2C/C=C\CCN(C2=O)[C@@H](Cc2ccc(C(F)(F)F)cc2)C(=O)N(C)CC(=O)N[C@@H](CCc2cc(F)c(C(F)(F)F)c(F)c2)C(=O)N2C[C@H](OCC)C[C@H]2C(=O)NC2(CCC2)C(=O)N(C)[C@@H](C2CCCC2)C(=O)N1C [PP1702] | A (a compound having 10 or more and less than 20 is denoted as A) | A (a compound having 10 or more and less than 20 is denoted as A)
5 | C#CC[C@H]1C(=O)N[C@@H]([C@@H](C)CC)C(=O)N(C)CC(=O)N(C)[C@H]2C/C=C\CCN(C2=O)[C@@H](Cc2ccc(C(F)(F)F)cc2)C(=O)N(C)CC(=O)N[C@@H](CCc2cc(F)c(C(F)(F)F)c(F)c2)C(=O)N2C[C@H](OCC)C[C@H]2C(=O)NC2(CCC2)C(=O)N(C)[C@@H](C2CCCC2)C(=O)N(C)[C@H](C(=O)N(C)CCC)CC(=O)N1C [PP1703] | A (a compound having 10 or more and less than 20 is denoted as A) | A (a compound having 10 or more and less than 20 is denoted as A)
6 | CCCC[C@H]1C(=O)N[C@@H]([C@@H](C)CC)C(=O)N(C)CC(=O)N(C)[C@H]2C/C=C\CCN(C2=O)[C@@H](Cc2ccc(C(F)(F)F)cc2)C(=O)N(C)CC(=O)N[C@@H](CCc2cc(F)c(C(F)(F)F)c(F)c2)C(=O)N2C[C@H](OCC)C[C@H]2C(=O)NC2(CCC2)C(=O)N(C)[C@@H](C2CCCC2)C(=O)N(C)[C@H](C(=O)N(C)CCC)CC(=O)N1C [PP1704] | A (a compound having 10 or more and less than 20 is denoted as A) | A (a compound having 10 or more and less than 20 is denoted as A)
7 | CCCN(C)C(=O)[C@@H]1CC(=O)N(C)[C@@H](CC2CCC2)C(=O)N[C@@H]([C@@H](C)CC)C(=O)N(C)CC(=O)N(C)[C@H]2C/C=C\CCN(C2=O)[C@@H](Cc2ccc(C(F)(F)F)cc2)C(=O)N(C)CC(=O)N[C@@H](CCc2cc(F)c(C(F)(F)F)c(F)c2)C(=O)N2C[C@H](OCC)C[C@H]2C(=O)NC2(CCC2)C(=O)N(C)[C@@H](C2CCCC2)C(=O)N1C [PP1705] | AA (a compound having 20 or more is denoted as AA) | A (a compound having 10 or more and less than 20 is denoted as A)
8 | CC[C@H](C)[C@@H]1NC(=O)[C@H](C)N(C)C(=O)C[C@@H](C(=O)N(C)C)N(C)C(=O)[C@H](C2CCCC2)N(C)C(=O)C2(CC(C)(C)C2)NC(=O)[C@@H]2CC(F)(F)CN2C(=O)[C@H](CCc2cc(F)c(C(F)(F)F)c(F)c2)NC(=O)CN(C)C(=O)[C@H](Cc2ccc(C(F)(F)F)cc2)N2CC/C=C\C[C@@H](C2=O)N(C)C(=O)CN(C)C1=O [PP1707] | AA (a compound having 20 or more is denoted as AA) | A (a compound having 10 or more and less than 20 is denoted as A)
9 | CC[C@H](C)[C@@H]1NC(=O)[C@H](CC(F)F)N(C)C(=O)C[C@@H](C(=O)N(C)C)N(C)C(=O)[C@H](C2CCCC2)N(C)C(=O)C2(CC(C)(C)C2)NC(=O)[C@@H]2CC(F)(F)CN2C(=O)[C@H](CCc2cc(F)c(C(F)(F)F)c(F)c2)NC(=O)CN(C)C(=O)[C@H](Cc2ccc(C(F)(F)F)cc2)N2CC/C=C\C[C@@H](C2=O)N(C)C(=O)CN(C)C1=O [PP1709] | A (a compound having 10 or more and less than 20 is denoted as A) | A (a compound having 10 or more and less than 20 is denoted as A)
10 | CC[C@H](C)[C@@H]1NC(=O)[C@H](CC(F)(F)F)N(C)C(=O)C[C@@H](C(=O)N(C)C)N(C)C(=O)[C@H](C2CCCC2)N(C)C(=O)C2(CC(C)(C)C2)NC(=O)[C@@H]2CC(F)(F)CN2C(=O)[C@H](CCc2cc(F)c(C(F)(F)F)c(F)c2)NC(=O)CN(C)C(=O)[C@H](Cc2ccc(C(F)(F)F)cc2)N2CC/C=C\C[C@@H](C2=O)N(C)C(=O)CN(C)C1=O [PP1710] | A (a compound having 10 or more and less than 20 is denoted as A) | B (a compound having 3 or more and less than 10 is denoted as B)
11 | CCC[C@H]1C(=O)N[C@@H]([C@@H](C)CC)C(=O)N(C)CC(=O)N(C)[C@H]2C/C=C\CCN(C2=O)[C@@H](Cc2ccc(C(F)(F)F)cc2)C(=O)N(C)CC(=O)N[C@@H](CCc2cc(F)c(C(F)(F)F)c(F)c2)C(=O)N2CC(F)(F)C[C@H]2C(=O)NC2(CC(C)(C)C2)C(=O)N(C)[C@@H](C2CCCC2)C(=O)N(C)[C@H](C(=O)N(C)C)CC(=O)N1C [PP1711] | A (a compound having 10 or more and less than 20 is denoted as A) | B (a compound having 3 or more and less than 10 is denoted as B)
12 | CC[C@H](C)[C@@H]1NC(=O)[C@H](CC2CC2)N(C)C(=O)C[C@@H](C(=O)N(C)C)N(C)C(=O)[C@H](C2CCCC2)N(C)C(=O)C2(CC(C)(C)C2)NC(=O)[C@@H]2CC(F)(F)CN2C(=O)[C@H](CCc2cc(F)c(C(F)(F)F)c(F)c2)NC(=O)CN(C)C(=O)[C@H](Cc2ccc(C(F)(F)F)cc2)N2CC/C=C\C[C@@H](C2=O)N(C)C(=O)CN(C)C1=O [PP1713] | A (a compound having 10 or more and less than 20 is denoted as A) | A (a compound having 10 or more and less than 20 is denoted as A)
13 | CCCC[C@H]1C(=O)N[C@@H]([C@@H](C)CC)C(=O)N(C)CC(=O)N(C)[C@H]2C/C=C\CCN(C2=O)[C@@H](Cc2ccc(C(F)(F)F)cc2)C(=O)N(C)CC(=O)N[C@@H](CCc2cc(F)c(C(F)(F)F)c(F)c2)C(=O)N2CC(F)(F)C[C@H]2C(=O)NC2(CC(C)(C)C2)C(=O)N(C)[C@@H](C2CCCC2)C(=O)N(C)[C@H](C(=O)N(C)C)CC(=O)N1C [PP1714] | A (a compound having 10 or more and less than 20 is denoted as A) | A (a compound having 10 or more and less than 20 is denoted as A)
14 | CC[C@H](C)[C@@H]1NC(=O)[C@H](CC(C)C)N(C)C(=O)C[C@@H](C(=O)N(C)C)N(C)C(=O)[C@H](C2CCCC2)N(C)C(=O)C2(CC(C)(C)C2)NC(=O)[C@@H]2CC(F)(F)CN2C(=O)[C@H](CCc2cc(F)c(C(F)(F)F)c(F)c2)NC(=O)CN(C)C(=O)[C@H](Cc2ccc(C(F)(F)F)cc2)N2CC/C=C\C[C@@H](C2=O)N(C)C(=O)CN(C)C1=O [PP1715] | AA (a compound having 20 or more is denoted as AA) | A (a compound having 10 or more and less than 20 is denoted as A)
15 | CC[C@H](C)[C@@H]1NC(=O)[C@H](CC2CCC2)N(C)C(=O)C[C@@H](C(=O)N(C)C)N(C)C(=O)[C@H](C2CCCC2)N(C)C(=O)C2(CC(C)(C)C2)NC(=O)[C@@H]2CC(F)(F)CN2C(=O)[C@H](CCc2cc(F)c(C(F)(F)F)c(F)c2)NC(=O)CN(C)C(=O)[C@H](Cc2ccc(C(F)(F)F)cc2)N2CC/C=C\C[C@@H](C2=O)N(C)C(=O)CN(C)C1=O [PP1716] | AA (a compound having 20 or more is denoted as AA) | A (a compound having 10 or more and less than 20 is denoted as A)
16 | CC[C@H](C)[C@@H]1NC(=O)[C@H](COC)N(C)C(=O)C[C@@H](C(=O)N(C)C)N(C)C(=O)[C@H](C2CCCC2)N(C)C(=O)C2(CC(C)(C)C2)NC(=O)[C@@H]2CC(F)(F)CN2C(=O)[C@H](CCc2cc(F)c(C(F)(F)F)c(F)c2)NC(=O)CN(C)C(=O)[C@H](Cc2ccc(C(F)(F)F)cc2)N2CC/C=C\C[C@@H](C2=O)N(C)C(=O)CN(C)C1=O [PP1717] | A (a compound having 10 or more and less than 20 is denoted as A) | A (a compound having 10 or more and less than 20 is denoted as A)
